Results: US5409932A, “Piperazine-substituted pyrroloanthracenes” (Bayer AG, priority 1993, dated 1995)

Tested on: human T cells
Assay: Inhibition of 5-HT-dependent T Cell Proliferation
Format: cell-based
Settings: monocyte-free human T cells stimulated with PWM and 5-HT, 3H-thymidine incorporation, 7 days
From the text: The in vitro activity of the compounds according to the invention results from their capability to inhibit T cell proliferation, which is previously stimulated by serotonin.
Inhibition of 5-HT-dependent T Cell Proliferation
Peripheral mononuclear blood cells (PBMC) are obtained from the buffy coat of the blood of healthy subjects. After isolation by means of isolymph gradients (Pharmacia), the PBMC are washed twice and used directly. Purified T cells are obtained by E rosette formation with sheep erythrocytes [cf. Blue, M.-L. , J. F. Daley, H. Levine, K. A. Craig and S. F. Schlossmann, 1986, Biosynthesis and surface expression of T8 by peripheral blood T4+cells in vitro, J. Immunol. 137, 1202]. Monocytes are partially removed by adhesion to tissue culture plates or flasks. PBMC, T cells or purified T cells (depleted in monocytes) at 5×10^5 /ml, 100 μl/well are cultured in RPMI 1640 medium with 10% fetal calf serum (GIBCO) and L-glutamine in 96-well microculture plates (Becton--Dickinson)under a 5% CO2 atmosphere at 37° C. for 7 days. The cultures are treated with 1 μCi of ^3 H-thymidine for 6 h on the 7th day and collected on filter paper, and the incorporated radioactivity is determined by means of liquid scintillation counting.
The test substances are dissolved in 10 mM HCl in order to achieve a final concentration of 1 mM in each case. The compounds are diluted serially 3×with medium in order to obtain a final concentration between 33 μM-0.1 μM. PWM (1:200, pokeweed mitogen) and 5-HT (100 μm, serotonin), which contain the test substances, are added to monocyte-free human T cells. The positive control (maximum proliferation) is obtained from cultures containing T cells, PWM and 5-HT. The negative control (minimal proliferation) is obtained from cultures containing T cells and PWM without 5-HT. The inhibitory activity of the test substances is expressed as the IC50 in μM. (see also WO 92/04015)

Row | Compound | IC50 (Homo sapiens, T-cell) | IC50
1 | Clc1cccc(N2CCN(CCCCN3CC4C5c6ccccc6C(c6ccccc65)C4C3)CC2)c1 (stereo not drawn) [Example 66] | 2000 nM | –
2 | Cc1cccc(N2CCN(CCCN3CC4C5c6ccccc6C(c6ccccc65)C4C3)CC2)c1 (stereo not drawn) [Example 79] | 1000 nM | –
3 | Fc1ccc(N2CCN(CCCN3CC4C5c6ccccc6C(Cl)(c6ccccc65)C4C3)CC2)cc1 (stereo not drawn) [Example 100] | 2000 nM | –
4 | N#CC12c3ccccc3C(c3ccccc31)C1C(=O)N(CCCN3CCN(c4ccc(F)cc4)CC3)C(=O)C12 (stereo not drawn) [Example 36] | > 10000 nM | –
5 | CCOc1ccccc1N1CCN(CCCN2C(=O)C3C4c5ccccc5C(c5ccccc54)C3C2=O)CC1 (stereo not drawn) [Example 22] | > 10000 nM | –
6 | C=CC12c3ccccc3C(c3ccccc31)C1CN(CCCN3CCN(c4ccc(F)cc4)CC3)CC12 (stereo not drawn) [Example 102] | 2000 nM | –
7 | O=C1N(CCCN2CCN(c3ccc(F)cc3)CC2)CC2C3c4ccccc4C(c4ccccc43)C12c1ccccc1 (stereo not drawn) [Example 117] | 2000 nM | –
8 | O=C1C2C3c4ccccc4C(c4ccccc43)C2C(=O)N1CCCCN1CCN(c2ccc(F)cc2)CC1 (stereo not drawn) [Example 5] | > 10000 nM | –
9 | OCC12c3ccccc3C(c3ccccc31)C1CN(CCCN3CCN(c4ccc(F)cc4)CC3)CC12 (stereo not drawn) [Example 98] | 10000 nM | –
10 | CC12CN(CCCN3CCN(c4ccccc4)CC3)CC1C1c3ccccc3C2c2ccccc21 (stereo not drawn) [Example 104] | 2000 nM | –
11 | O=C1C2C3c4ccccc4C(c4ccccc43)C2C(=O)N1CCCN1CCN(c2ccccc2Cl)CC1 (stereo not drawn) [Example 17] | > 10000 nM | –
12 | Cc1cccc(C)c1N1CCN(CCCN2C(=O)C3C4c5ccccc5C(c5ccccc54)C3C2=O)CC1 (stereo not drawn) [Example 23] | > 10000 nM | –
13 | FC(F)(F)c1ccc(N2CCN(CCCCN3CC4C5c6ccccc6C(c6ccccc65)C4C3)CC2)cc1 (stereo not drawn) [Example 73] | 2000 nM | –
14 | O=C1C2C3c4ccccc4C(c4ccccc43)C2C(=O)N1CCCN1CCN(c2ccccc2)CC1 (stereo not drawn) [Example 7] | > 10000 nM | –
15 | Cc1ccc(N2CCN(CCCN3C(=O)C4C5c6ccccc6C(c6ccccc65)C4C3=O)CC2)c(C)c1 (stereo not drawn) [Example 25] | > 10000 nM | –
16 | Clc1ccc(N2CCN(CCCCN3CC4C5c6ccccc6C(c6ccccc65)C4C3)CC2)cc1Cl (stereo not drawn) [Example 68] | 5000 nM | –
17 | COc1ccccc1N1CCN(CCCN2C(=O)C3C4c5ccccc5C(c5ccccc54)C3C2=O)CC1 (stereo not drawn) [Example 21] | > 10000 nM | –
18 | FC(F)(F)c1ccc(N2CCN(CCCN3CC4C5c6ccccc6C(c6ccccc65)C4C3)CC2)cc1 (stereo not drawn) [Example 75] | 2000 nM | –
19 | O=C1C2C(CN1CCCN1CCN(c3ccccc3)CC1)C1(Cl)c3ccccc3C2(Cl)c2ccccc21 (stereo not drawn) [Example 116] | 2000 nM | –
20 | CC12c3ccccc3C(C)(c3ccccc31)C1C(=O)N(CCCN3CCN(c4ccc(F)cc4)CC3)C(=O)C12 (stereo not drawn) [Example 110] | – | 2000 nM
21 | COc1cc(N2CCN(CCCN3CC4C5c6ccccc6C(c6ccccc65)C4C3)CC2)cc(OC)c1OC (stereo not drawn) [Example 106] | 500 nM | –
22 | O=C1C2C3c4ccccc4C(c4ccccc43)C2C(=O)N1CCCCN1CCN(c2ccccc2)CC1 (stereo not drawn) [Example 4] | 5000 nM | –
23 | Fc1ccc(N2CCN(CCCN3CC4C5c6ccccc6C(C=Cc6ccccc6)(c6ccccc65)C4C3)CC2)cc1 (stereo not drawn) [Example 103] | 2000 nM | –
24 | COc1ccc(N2CCN(CCCCN3CC4C5c6ccccc6C(c6ccccc65)C4C3)CC2)cc1 (stereo not drawn) [Example 70] | 500 nM | –
25 | O=C1N(CCCN2CCN(c3ccc(F)cc3)CC2)C(=O)C2(Cl)C3c4ccccc4C(c4ccccc43)C12Cl (stereo not drawn) [Example 51] | 50000 nM | –
26 | O=C1C2C3c4ccccc4C(c4ccccc43)C2CN1CCCN1CCN(c2cc(Cl)cc(Cl)c2)CC1 (stereo not drawn) [Example 115] | 2000 nM | –
27 | O=C1C2C3c4ccccc4C(c4ccccc43)C2C(=O)N1CCCN1CCN(c2cccc(Cl)c2)CC1 (stereo not drawn) [Example 13] | > 10000 nM | –
28 | CC12c3ccccc3C(c3ccccc31)C1CN(CCCN3CCN(c4ccc(Cl)cc4)CC3)CC12 (stereo not drawn) [Example 95] | 5000 nM | –
29 | O=C1C2C3c4ccccc4C(c4ccccc4)(c4ccccc43)C2C(=O)N1CCCN1CCN(c2ccc(F)cc2)CC1 (stereo not drawn) [Example 49] | > 50000 nM | –
30 | COc1ccc(N2CCN(CCCN3C(=O)C4C5c6ccccc6C(c6ccccc65)C4C3=O)CC2)cc1OC (stereo not drawn) [Example 28] | > 10000 nM | –
